Data taken from patent US11384055B2 (BIOMARIN PHARMACEUTICAL INC., priority 2017, dated 2022).

target: T1, Human GO (Homo sapiens, UniProt Q9UJM8); test: GO enzymatic assay (coupled fluorescence/HRP assay, glycolate substrate); assay type: biochemical; conditions: Table 2; read-out: Range (range of IC50 values calculated from the enzymatic assays)
T1 construct: purchased Novus Biologicals NBP1-72412
T1 sequence (Q9UJM8 1-370): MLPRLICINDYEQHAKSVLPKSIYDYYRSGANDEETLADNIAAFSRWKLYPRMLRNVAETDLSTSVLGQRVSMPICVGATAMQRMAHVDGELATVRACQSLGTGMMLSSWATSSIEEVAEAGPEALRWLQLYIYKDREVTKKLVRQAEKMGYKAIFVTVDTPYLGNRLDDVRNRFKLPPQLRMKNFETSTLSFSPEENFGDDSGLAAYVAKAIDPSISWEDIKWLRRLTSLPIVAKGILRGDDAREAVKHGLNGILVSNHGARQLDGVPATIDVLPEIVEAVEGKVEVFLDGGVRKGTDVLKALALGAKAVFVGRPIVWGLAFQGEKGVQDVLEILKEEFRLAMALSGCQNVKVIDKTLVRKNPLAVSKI
How it was run: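 Human GO incubated with glycolate substrate in 50 mM potassium phosphate, pH 7, with varying inhibitor concentrations. Activity read by coupled HRP fluorescence. IC50 taken from variable-slope sigmoidal dose-response fits of percent inhibition relative to DMSO control.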

| IC50 | SMILES |
| --- | --- |
| < 100 nM | O=C(O)c1[nH]nnc1OC1CCN(c2cc(Cl)ccc2OC(F)(F)F)CC1 [Compound 367, 4-((1-(5-chloro-2-(trifluoromethoxy)phenyl)piperidin-4-yl)oxy)-1H-1,2,3-triazole-5-carboxylic acid 2,2,2-trifluoroacetate] |
| < 100 nM | O=C(O)c1[nH]nnc1O[C@H]1CC[C@@H](c2ccc(N3CCC(F)(F)CC3)cc2)CC1 [Compound 368, 4-(((cis)-4-(4-(4,4-difluoropiperidin-1-yl)phenyl)cyclohexyl)oxy)-1H-1,2,3-triazole-5-carboxylic acid 2,2,2-trifluoroacetate] |
| < 100 nM | O=C(O)c1[nH]nnc1OCC1C2CN(c3ccc(Cl)c(Cl)c3)CC12 (centres unmarked) [Compound 369, 4-((3-(3,4-dichlorophenyl)-3-azabicyclo[3.1.0]hexan-6-yl)methoxy)-1H-1,2,3-triazole-5-carboxylic acid] |
| > 10000 nM | CCN(CC)C(=O)OCOC(=O)c1[nH]nnc1O[C@H]1CC[C@H](c2ccc(OC(F)(F)F)cc2)CC1 [Compound 370, ((diethylcarbamoyl)oxy)methyl 4-(((trans)-4-(4-(trifluoromethoxy)phenyl)cyclohexyl)oxy)-1H-1,2,3-triazole-5-carboxylate] |
| < 100 nM | O=C(O)c1[nH]nnc1SCC1C2CN(c3ccc(Cl)c(Cl)c3)CC12 (centres unmarked) [Compound 373, 4-(((3-(3,4-dichlorophenyl)-3-azabicyclo[3.1.0]hexan-6-yl)methyl)thio)-1H-1,2,3-triazole-5-carboxylic acid] |
| < 100 nM | O=C(O)c1[nH]nnc1Oc1cccc(OC2CCCC2)c1 [Compound 375, 4-(3-(cyclopentyloxy)phenoxy)-1H-1,2,3-triazole-5-carboxylic acid 2,2,2-trifluoroacetate] |

More lines, now with the values behind:

| SMILES | IC50 |
| --- | --- |
| O=C(O)c1[nH]nnc1O[C@H]1CC[C@@H](c2cc(Cl)cc(OC(F)(F)F)c2)CC1 [Compound 355, 4-(((cis)-4-(3-chloro-5-(trifluoromethoxy)phenyl)cyclohexyl)oxy)-1H-1,2,3-triazole-5-carboxylic acid] | < 100 nM |
| O=C(O)c1[nH]nnc1O[C@H]1CC[C@@H](c2ccc(N3CCCC3)cc2)CC1 [Compound 356, 4-(((cis)-4-(4-(pyrrolidin-1-yl)phenyl)cyclohexyl)oxy)-1H-1,2,3-triazole-5-carboxylic acid 2,2,2-trifluoroacetate] | < 100 nM |
| O=C(O)c1[nH]nnc1Oc1cc(OCC2CCCC2)ccc1Cl [Compound 357, 4-(2-chloro-5-(cyclopentylmethoxy)phenoxy)-1H-1,2,3-triazole-5-carboxylic acid] | < 100 nM |
| O=C(O)c1[nH]nnc1Oc1cc(Cl)cc(OC(F)(F)F)c1 [Compound 358, 4-(3-chloro-5-(trifluoromethoxy)phenoxy)-1H-1,2,3-triazole-5-carboxylic acid] | < 100 nM |
| N#Cc1ccc(N2CCC(Oc3nn[nH]c3C(=O)O)CC2)cc1 [Compound 359, 4-((1-(4-cyanophenyl)piperidin-4-yl)oxy)-1H-1,2,3-triazole-5-carboxylic acid 2,2,2-trifluoroacetate] | < 100 nM |
| O=C(O)c1[nH]nnc1O[C@H]1CC[C@@H](c2ccc(OC(F)(F)F)c(Cl)c2)CC1 [Compound 360, 4-(((cis)-4-(3-chloro-4-(trifluoromethoxy)phenyl)cyclohexyl)oxy)-1H-1,2,3-triazole-5-carboxylic acid] | < 100 nM |
| O=C(O)c1[nH]nnc1OC1CCN(c2ccc(OC(F)(F)F)c(Cl)c2)CC1 [Compound 361, 4-((1-(3-chloro-4-(trifluoromethoxy)phenyl)piperidin-4-yl)oxy)-1H-1,2,3-triazole-5-carboxylic acid] | < 100 nM |
| O=C(O)c1[nH]nnc1Oc1ccc(Cl)c(OCc2ccc(F)cc2)c1 [Compound 362, 4-(4-chloro-3-((4-fluorobenzyl)oxy)phenoxy)-1H-1,2,3-triazole-5-carboxylic acid] | < 100 nM |
| NC(=O)c1ccc([C@H]2CC[C@@H](Oc3nn[nH]c3C(=O)O)CC2)cc1 [Compound 363, 4-(((cis)-4-(4-carbamoylphenyl)cyclohexyl)oxy)-1H-1,2,3-triazole-5-carboxylic acid 2,2,2-trifluoroacetate] | < 100 nM |
| NC(=O)c1ccc([C@H]2CC[C@H](Oc3nn[nH]c3C(=O)O)CC2)cc1 [Compound 364, 4-(((trans)-4-(4-carbamoylphenyl)cyclohexyl)oxy)-1H-1,2,3-triazole-5-carboxylic acid 2,2,2-trifluoroacetate] | < 100 nM |
| N#Cc1ccc([C@H]2CC[C@@H](Oc3nn[nH]c3C(=O)O)CC2)cc1 [Compound 365, 4-(((cis)-4-(4-cyanophenyl)cyclohexyl)oxy)-1H-1,2,3-triazole-5-carboxylic acid] | < 100 nM |

same assay, conditions: Table 3; read-out: Range (range of IC50 values calculated from the enzymatic assays)

| IC50 | SMILES |
| --- | --- |
| 100 to 1000 nM | O=C(O)c1[nH]nnc1OC(Cc1ccc(-c2ccc(OC(F)(F)F)cc2)cc1)Cc1ccc(-c2ccc(OC(F)(F)F)cc2)cc1 [Compound 366, 4-((1,3-bis(4′-(trifluoromethoxy)-[1,1′-biphenyl]-4-yl)propan-2-yl)oxy)-1H-1,2,3-triazole-5-carboxylic acid] |
| 100 to 1000 nM | O=C(O)c1[nH]nnc1CCN(Cc1ccc(Cl)cc1)Cc1ccc(Cl)cc1 [Compound 372, 4-(2-(bis(4-chlorobenzyl)amino)ethyl)-1H-1,2,3-triazole-5-carboxylic acid 2,2,2-trifluoroacetate] |
| 100 to 1000 nM | O=C(O)c1[nH]nnc1CCN(Cc1ccc(Cl)cc1)Cc1ccc(-c2ccc(OC(F)(F)F)cc2)cc1 [Compound 374, 4-(2-((4-chlorobenzyl)((4′-(trifluoromethoxy)-[1,1′-biphenyl]-4-yl)methyl)amino)ethyl)-1H-1,2,3-triazole-5-carboxylic acid 2,2,2-trifluoroacetate] |

same assay, conditions: Table 4; read-out: Range (range of IC50 values calculated from the enzymatic assays)

| IC50 | SMILES |
| --- | --- |
| 100 to 1000 nM | O=C(O)c1[nH]nnc1OC(c1ccccc1)C(O)c1ccc(Cl)cc1 (centres unmarked) [Compound 378, 4-(2-(4-chlorophenyl)-2-hydroxy-1-phenylethoxy)-1H-1,2,3-triazole-5-carboxylic acid] |
| < 100 nM | N#Cc1ccc(-c2ccc(Sc3nn[nH]c3C(=O)O)cc2)cc1 [Compound 389, 4-((4′-cyano-[1,1′-biphenyl]-4-yl)thio)-1H-1,2,3-triazole-5-carboxylic acid 2,2,2-trifluoroacetate] |
| 100 to 1000 nM | CC(OC(=O)c1[nH]nnc1O[C@H]1CC[C@H](c2ccc(OC(F)(F)F)cc2)CC1)OC(=O)C1CCCCC1 (stereo partly drawn) [Compound 391, 1-((cyclohexanecarbonyl)oxy)ethyl 4-(((trans)-4-(4-(trifluoromethoxy)phenyl)cyclohexyl)oxy)-1H-1,2,3-triazole-5-carboxylate] |
| 100 to 1000 nM | CCC(OC(=O)c1[nH]nnc1O[C@H]1CC[C@H](c2ccc(OC(F)(F)F)cc2)CC1)OC(=O)C1CCCCC1 (stereo partly drawn) [Compound 392, 1-((cyclohexanecarbonyl)oxy)propyl 4-(((trans)-4-(4-(trifluoromethoxy)phenyl)cyclohexyl)oxy)-1H-1,2,3-triazole-5-carboxylate] |

same assay, conditions: Table 5; GO enzymatic assay; read-out: Range (range of IC50 values calculated from the enzymatic assays)

| IC50 | SMILES |
| --- | --- |
| 100 to 1000 nM | O=C(O)c1[nH]nnc1OC(c1ccccc1)C(O)c1ccc(Cl)cc1 (centres unmarked) [Compound 378, 4-(2-(4-chlorophenyl)-2-hydroxy-1-phenylethoxy)-1H-1,2,3-triazole-5-carboxylic acid] |
| 100 to 1000 nM | O=C(O)c1[nH]nnc1OC(Cc1ccc(Cl)cc1)Cc1ccc(-c2ccc(OC(F)(F)F)cc2)cc1 (centres unmarked) [Compound 385, 4-((1-(4-chlorophenyl)-3-(4′-(trifluoromethoxy)-[1,1′-biphenyl]-4-yl)propan-2-yl)oxy)-1H-1,2,3-triazole-5-carboxylic acid 2,2,2-trifluoroacetate] |
